Assay [1] addresses T1, adenosine-2 (A-2) receptor (Rattus norvegicus, UniProt P30543).
T1 construct: striatal membrane preparations from corpus striatum of male Sprague-Dawley rats; from tissue; host or cells: corpus striatum of male Sprague-Dawley rats (membrane preparation)
The assay can be described thus: adenosine-2 (A-2) receptor binding: inhibition of specific binding of 3H-NECA in rat striatal membrane preparations. More on the design: species or system male Sprague-Dawley rats. The note with it: for IC50: displacement of 4 nM 3H-NECA in the presence of 50 nM cyclopentyladenosine, rat striatal membranes, read-out: IC50 in the in vitro adenosine-2 receptor binding assay.

Assay [2] relates to spontaneous hypertensive rat. The assay can be described thus: blood pressure lowering effect in the spontaneous hypertensive rat on oral administration. In kind it is in vivo. The note with it: at a dose of about 10 mg/Kg p.o. As to the method: Indicative of in vivo adenosine receptor agonist activity, the hypotensive activity of the compounds of the invention can be measured in normotensive or spontaneous hypertensive rats on intravenous or oral administration.
The blood pressure lowering effect in the spontaneous hypertensive rat is determined on oral administration as known in the art.

SMILES strings stand for the structures.

T1 sequence (P30543 whole entry): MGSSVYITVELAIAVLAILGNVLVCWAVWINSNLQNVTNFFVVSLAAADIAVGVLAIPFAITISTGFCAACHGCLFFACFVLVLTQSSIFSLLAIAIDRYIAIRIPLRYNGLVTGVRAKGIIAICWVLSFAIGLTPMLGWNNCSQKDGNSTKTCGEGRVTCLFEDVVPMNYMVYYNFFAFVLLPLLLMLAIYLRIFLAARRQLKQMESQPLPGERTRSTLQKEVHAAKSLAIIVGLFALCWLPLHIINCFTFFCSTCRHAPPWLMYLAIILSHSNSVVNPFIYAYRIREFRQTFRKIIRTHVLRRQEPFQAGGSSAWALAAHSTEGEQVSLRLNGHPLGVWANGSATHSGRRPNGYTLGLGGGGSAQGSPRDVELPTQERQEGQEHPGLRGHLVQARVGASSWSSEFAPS

As for `Nc1cc(NCCC2CCCCC2)nc2c1ncn2[C@@H]1O[C@H](CO)[C@@H](O)[C@H]1O` [Example 1, 7-amino-3-β-D-ribofuranosyl-N-(2-cyclohexylethyl)-3H-imidazo[4,5-b] pyridin-5-amine], in assay [1] (A-2 binding versus A-1 binding), the “greater potency at the A-2 receptor than at the A-1 receptor” value was “more than 100 fold”. For the same compound, the half-maximal inhibitory concentration (IC50) in assay [1] was roughly 100 nM. In addition, the “lowers blood pressure in the spontaneous hypertensive rat model” value in assay [2] is “effectively lowers blood pressure”.
As to `COc1ccc(CCNc2cc(N)c3ncn([C@@H]4O[C@H](CO)[C@@H](O)[C@H]4O)c3n2)cc1` [Example 15(1)], the half-maximal inhibitory concentration (IC50) in assay [1] is roughly 70 nM.

The term IC50 denotes the concentration that gives 50% inhibition.

For the origin of these results see US4977144A, “Imidazo[4,5-b]pyridine derivatives as cardiovascular agents” (Ciba-Geigy Corporation, priority 1989, dated 1990).
